Source: publication PMC3830123 (Biomolecules & Therapeutics, 2013)

Legend:
Format in all cases: biochemical
[1] = target: T1, Rat brain mitochondrial MAO (MAO-A) (Rattus norvegicus, UniProt P21396); experiment: MAO-A assay in vitro, serotonin as substrate
T1 sequence (P21396 1-526): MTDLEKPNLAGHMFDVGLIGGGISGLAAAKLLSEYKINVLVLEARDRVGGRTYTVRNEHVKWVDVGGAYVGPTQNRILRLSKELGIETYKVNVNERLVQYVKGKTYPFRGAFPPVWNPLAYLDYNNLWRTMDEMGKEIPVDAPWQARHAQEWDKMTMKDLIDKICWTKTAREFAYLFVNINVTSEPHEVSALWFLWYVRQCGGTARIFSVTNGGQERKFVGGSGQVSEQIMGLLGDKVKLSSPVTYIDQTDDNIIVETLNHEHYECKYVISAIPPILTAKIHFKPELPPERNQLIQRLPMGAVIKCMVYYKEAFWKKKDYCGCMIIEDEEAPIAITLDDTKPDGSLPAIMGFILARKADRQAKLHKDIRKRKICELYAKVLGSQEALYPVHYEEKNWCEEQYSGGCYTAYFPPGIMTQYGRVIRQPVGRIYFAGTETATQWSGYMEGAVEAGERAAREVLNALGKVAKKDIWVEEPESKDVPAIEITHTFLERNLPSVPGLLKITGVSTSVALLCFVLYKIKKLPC

[2] = target: T2, Rat liver mitochondrial MAO (MAO-B) (Rattus norvegicus, UniProt P19643); experiment: MAO-B assay in vitro, benzylamine as substrate; settings: IC50 values MAO-B, isolated compounds, Table 2
T2 sequence (P19643 1-520): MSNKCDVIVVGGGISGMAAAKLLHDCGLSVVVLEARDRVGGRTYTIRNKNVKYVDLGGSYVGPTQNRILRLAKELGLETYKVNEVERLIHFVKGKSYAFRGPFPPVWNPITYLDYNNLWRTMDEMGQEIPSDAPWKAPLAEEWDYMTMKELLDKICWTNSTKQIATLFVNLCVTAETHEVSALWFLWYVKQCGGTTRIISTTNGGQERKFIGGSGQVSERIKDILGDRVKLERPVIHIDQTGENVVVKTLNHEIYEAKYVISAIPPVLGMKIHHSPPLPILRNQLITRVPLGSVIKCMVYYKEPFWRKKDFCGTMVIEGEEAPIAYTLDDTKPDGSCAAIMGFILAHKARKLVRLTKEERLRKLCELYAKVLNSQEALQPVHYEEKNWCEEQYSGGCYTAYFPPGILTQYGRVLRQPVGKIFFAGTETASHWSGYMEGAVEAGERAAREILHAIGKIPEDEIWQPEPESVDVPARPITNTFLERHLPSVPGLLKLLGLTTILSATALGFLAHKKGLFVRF

[3] = target: T3, dopamine β-hydroxylase (DBH) (Homo sapiens, UniProt P09172); experiment: DBH assay in vitro, tyramine as substrate
T3 sequence (P09172 1-617): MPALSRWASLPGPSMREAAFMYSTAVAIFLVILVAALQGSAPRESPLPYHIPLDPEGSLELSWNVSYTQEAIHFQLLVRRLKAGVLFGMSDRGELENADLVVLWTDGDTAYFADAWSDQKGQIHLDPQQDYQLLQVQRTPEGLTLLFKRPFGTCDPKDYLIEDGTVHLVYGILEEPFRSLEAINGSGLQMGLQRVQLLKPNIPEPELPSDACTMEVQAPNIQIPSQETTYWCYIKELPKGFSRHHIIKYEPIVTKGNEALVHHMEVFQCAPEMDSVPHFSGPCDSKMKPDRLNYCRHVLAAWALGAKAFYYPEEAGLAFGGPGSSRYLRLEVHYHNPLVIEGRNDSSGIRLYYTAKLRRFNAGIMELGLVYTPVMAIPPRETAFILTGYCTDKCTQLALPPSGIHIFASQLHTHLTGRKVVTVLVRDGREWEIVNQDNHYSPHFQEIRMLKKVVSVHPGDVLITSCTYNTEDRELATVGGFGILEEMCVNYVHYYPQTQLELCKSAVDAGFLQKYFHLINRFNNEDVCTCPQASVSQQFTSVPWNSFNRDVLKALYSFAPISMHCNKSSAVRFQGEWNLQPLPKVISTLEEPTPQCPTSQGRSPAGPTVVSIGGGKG

CC(C)=CCC/C(C)=C/Cc1c(O)ccc(C(=O)/C=C/c2ccc(O)cc2)c1O [Xanthoangelol]
IC50 [1]: 43.4 µM
IC50 [2]: 43.9 µM
IC50 [3]: 516 µM
